The test system of one test is MCF-7 cells. Description: Cell Growth Inhibition, MCF-7 (CellTiterGlo, 6 days). The class given is cell-based. The note with it: Homo sapiens, MCF7, 144 h; MCF-7, 6-day treatment, CellTiterGlo 2.0. In short, it runs like this:
(§1)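 Compounds were run in half-log series, usually 10–10,000 nM, with 500 cells/well of OVCAR-3 or MCF-7 in RPMI plus 10% FBS. After a 6-day culture at 37 °C, viability was read by CellTiterGlo luminescence. Inhibition relative to control was fitted (four-parameter, variable slope) for IC50.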
(In general: Cellular ATP, detected with luciferase, serves as a proxy for viable cell number.)

The next test deals with CDK6/Cyclin D3 (Homo sapiens (Human), UniProt Q00534). Description: CDK6/Cyclin D3 ADP-Glo Kinase Assay. The format is biochemical. The following applies: 100 uM ATP, read-out: CDK6/ CyclinD3 IC50. In outline: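 Luminescent ADP-Glo read-out of ADP produced, used to fit IC50 (4-parameter equation on fractional velocity against inhibitor concentration). Kinase reaction: enzyme and inhibitor together 30 min, then ATP-containing substrate added for 90 min, all at room temperature.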
A general note: ADP-Glo first removes unused ATP, then detects ADP through luciferase.

For the next test, the target named is CDK4/Cyclin D1 (Homo sapiens (Human), UniProt P11802). Description: CDK4/Cyclin D1 Mobility Shift Assay (MSA). The class given is biochemical. The note with it: 0.2 mM ATP, read-out: CDK4/ CyclinD1 MSA IC50. An excerpt: CDK4/Cyclin D1 Mobility Shift Assay (MSA)
The purpose CDK4/Cyclin D1 assay is to evaluate the inhibition (% inhibition and IC50 values) in the presence of small molecule inhibitors by using a fluorescence based microfluidic mobility shift assay. CDK4/Cyclin D1 catalyzes the production of ADP from ATP that accompanies the phosphoryl transfer to the substrate peptide 5-FAM-Dyrktide (5-FAM-RRRFRPASPLRGPPK) (Perkin Elmer Peptide 34). The mobility shift assay (MSA) electrophoretically separates the fluorescently labelled peptides (substrate and phosphorylated product) following the kinase reaction. Both substrate and product are measured, and the ratio of these values is used to generate % conversion of substrate to product by the LabChip EZ Reader. Typical reaction solutions contained 2% DMSO (+/−inhibitor), 10 mM MgCl2, 1 mM EGTA, 0.05% BSA, 2 mM DTT, 0.2 mM ATP, 0.01% Brig-35, 1.5 uM 5-FAM-Dyrktide, 2.5 nM CDK4/Cyclin D1 in 50 mM HEPES buffer at pH 7.5. The reaction was initiated with the addition of substrate solution, following a 30-minute pre-incubation of enzyme and inhibitor at 22° C. in the reaction mix. The reaction was stopped after 180 minutes by the addition of 75 uL of 500 mM EDTA and measured on a Perkin Elmer EZ reader instrument. IC50 determinations were made from a plot of the fractional velocity as a function of inhibitor concentration fit to the 4 parameters IC50 equation.

The target in test [1] is CDK2/Cyclin E1 full length (Homo sapiens (Human), UniProt P24941). Description: CDK2/Cyclin E1 Full Length ADP-Glo Kinase Assay. The format is biochemical. The note with it: 20 uM ATP, read-out: CDK2/ CyclinE1 IC50. In outline: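 ADP-Glo luminescence read-out of ADP formed by 0.328 nM wild-type full-length CDK2/Cyclin E1, 90 min at room temperature with 0.75 uM substrate and 20 uM ATP (Km 64.78 uM), after 30 min enzyme–inhibitor pre-incubation; 50 mM HEPES pH 7.5, 2% DMSO. Four-parameter IC50 fit.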

The target of the next test is CDK1/Cyclin B1 (Homo sapiens (Human), UniProt P06493). Description: CDK1/Cyclin B1 ADP-Glo Kinase Assay. The format is biochemical. The note with it: 80 uM ATP. In outline:
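Luminescent ADP-Glo detection of ADP produced over 90 min at room temperature. Enzyme complex 4.917 nM, pre-exposed 30 min to inhibitor; ATP 80 µM (near Km 78.6 µM), substrate 0.75 µM, HEPES pH 7.5, 2% DMSO. Fractional velocity fitted to 4-parameter IC50 equation.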

A further test has as its system OVCAR-3 cells. Description: Cell Growth Inhibition, OVCAR-3 (CellTiterGlo, 6 days). The format is cell-based. The following applies: Homo sapiens, 144 h; OVCAR-3, 6-day treatment, CellTiterGlo 2.0. In outline:
as §1

Molecules are shown by their SMILES. pIC50: −log10 of the molar value.

Chain of CDK6/Cyclin D3 (Q00534 whole entry): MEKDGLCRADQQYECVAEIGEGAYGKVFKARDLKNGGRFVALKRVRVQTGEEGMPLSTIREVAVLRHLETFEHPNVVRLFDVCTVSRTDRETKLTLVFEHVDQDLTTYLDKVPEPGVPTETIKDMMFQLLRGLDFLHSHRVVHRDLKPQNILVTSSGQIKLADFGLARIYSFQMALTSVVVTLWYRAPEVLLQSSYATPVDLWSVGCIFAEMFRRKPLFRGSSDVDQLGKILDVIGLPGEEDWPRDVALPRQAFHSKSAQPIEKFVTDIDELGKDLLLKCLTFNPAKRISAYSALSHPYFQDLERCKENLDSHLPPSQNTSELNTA
Chain of CDK6/Cyclin D3 (P30281 whole entry partner): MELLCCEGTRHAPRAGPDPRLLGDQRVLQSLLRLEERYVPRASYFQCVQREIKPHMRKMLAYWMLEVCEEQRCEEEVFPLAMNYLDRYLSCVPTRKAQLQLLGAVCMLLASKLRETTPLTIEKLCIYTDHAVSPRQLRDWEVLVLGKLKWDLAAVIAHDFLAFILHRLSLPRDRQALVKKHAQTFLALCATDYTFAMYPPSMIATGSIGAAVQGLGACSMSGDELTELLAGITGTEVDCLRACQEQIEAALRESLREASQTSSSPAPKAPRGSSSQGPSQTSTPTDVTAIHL
Chain of CDK4/Cyclin D1 (P11802 whole entry): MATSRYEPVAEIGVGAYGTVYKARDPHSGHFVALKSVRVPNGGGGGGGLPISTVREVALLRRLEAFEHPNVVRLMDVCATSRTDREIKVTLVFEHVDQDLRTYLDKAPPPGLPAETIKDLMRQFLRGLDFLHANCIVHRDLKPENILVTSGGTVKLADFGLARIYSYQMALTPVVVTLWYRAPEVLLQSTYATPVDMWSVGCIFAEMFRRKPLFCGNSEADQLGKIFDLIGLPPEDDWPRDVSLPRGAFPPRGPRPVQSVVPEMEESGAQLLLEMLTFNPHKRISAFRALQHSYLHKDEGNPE
Chain of CDK4/Cyclin D1 (P24385 whole entry partner): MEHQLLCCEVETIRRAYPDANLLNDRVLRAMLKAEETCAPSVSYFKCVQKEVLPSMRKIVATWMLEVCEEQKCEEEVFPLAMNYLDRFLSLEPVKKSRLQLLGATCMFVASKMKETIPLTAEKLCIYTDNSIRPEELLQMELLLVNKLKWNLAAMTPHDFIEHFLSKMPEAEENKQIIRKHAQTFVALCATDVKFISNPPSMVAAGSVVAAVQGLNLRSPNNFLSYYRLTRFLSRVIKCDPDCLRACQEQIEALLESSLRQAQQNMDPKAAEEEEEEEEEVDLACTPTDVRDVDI
Chain of CDK1/Cyclin B1 (P06493 whole entry): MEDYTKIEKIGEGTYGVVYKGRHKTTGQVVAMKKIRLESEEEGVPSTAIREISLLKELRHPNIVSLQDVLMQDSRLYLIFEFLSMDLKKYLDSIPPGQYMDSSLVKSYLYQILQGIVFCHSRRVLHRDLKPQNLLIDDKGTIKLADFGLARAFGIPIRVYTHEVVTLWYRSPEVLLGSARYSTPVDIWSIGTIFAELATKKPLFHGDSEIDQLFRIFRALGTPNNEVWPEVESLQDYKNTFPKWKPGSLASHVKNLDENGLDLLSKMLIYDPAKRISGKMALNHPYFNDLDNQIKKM
Chain of CDK1/Cyclin B1 (P14635 whole entry partner): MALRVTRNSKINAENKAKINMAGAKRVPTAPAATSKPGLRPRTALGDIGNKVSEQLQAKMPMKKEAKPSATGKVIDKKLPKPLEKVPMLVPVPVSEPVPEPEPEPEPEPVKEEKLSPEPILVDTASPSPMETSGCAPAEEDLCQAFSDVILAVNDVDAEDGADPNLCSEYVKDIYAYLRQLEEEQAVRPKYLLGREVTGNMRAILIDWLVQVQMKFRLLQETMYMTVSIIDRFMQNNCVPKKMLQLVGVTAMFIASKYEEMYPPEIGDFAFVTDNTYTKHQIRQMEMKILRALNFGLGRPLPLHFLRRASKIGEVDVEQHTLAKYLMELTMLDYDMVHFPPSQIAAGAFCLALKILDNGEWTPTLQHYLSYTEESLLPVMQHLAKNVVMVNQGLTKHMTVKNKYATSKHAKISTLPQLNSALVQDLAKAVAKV

On to `CC(=O)N1CCC2(CCN(c3cccc4cnc(NC5CCN(S(C)(=O)=O)CC5)nc34)C2)C1` (stereo not drawn) [Example 6, 1-(7-(2-((1-(methylsulfonyl)piperidin-4-yl)amino)quinazolin-8-yl)-2,7-diazaspiro[4.4]nonan-2-yl)ethan-1-one], for which the pIC50 in the test with MCF-7 cells was less than 5.70; at CDK6/Cyclin D3, more than 6.70; on CDK4/Cyclin D1 it was more than 6.70; in test [1], more than 6.70; on CDK1/Cyclin B1, less than 5.70; with OVCAR-3 cells, less than 5.70.
In the case of `CS(=O)(=O)N1CCC(Nc2ncc3cccc(N4CCC5(CCC5(F)F)C4)c3n2)CC1` (stereo not drawn) [Example 37, 8-(1,1-difluoro-6-azaspiro[3.4]octan-6-yl)-N-(1-(methylsulfonyl)piperidin-4-yl)quinazolin-2-amine], the pIC50 is less than 5.70 in the test with MCF-7 cells; more than 6.70 on CDK6/Cyclin D3; more than 6.70 at CDK4/Cyclin D1; more than 6.70 in test [1]; 5.70 to 6.30 against CDK1/Cyclin B1; less than 5.70 in the test on OVCAR-3 cells.
For the compound `COCCN1CCC2(C1)CN(c1cccc3cnc(NC4CCN(S(C)(=O)=O)CC4)nc13)C2` [Example 39, 8-(6-(2-methoxyethyl)-2,6-diazaspiro[3.4]octan-2-yl)-N-(1-(methylsulfonyl)piperidin-4-yl)quinazolin-2-amine], the pIC50 was less than 5.70 with MCF-7 cells; 5.70 to 6.30 on CDK6/Cyclin D3; more than 6.70 on CDK4/Cyclin D1; more than 6.70 in test [1]; 5.70 to 6.30 at CDK1/Cyclin B1; less than 5.70 in the test with OVCAR-3 cells.
`CS(=O)(=O)N1CCC(Nc2ncc3cccc(N4CCC5(C4)CS(=O)(=O)C5)c3n2)CC1` [Example 4, 6-(2-((1-(methylsulfonyl)piperidin-4-yl)amino)quinazolin-8-yl)-2-thia-6-azaspiro[3.4]octane 2,2-dioxide]: the pIC50 was 5.70 to 6.30 in the test on MCF-7 cells; more than 6.70 on CDK6/Cyclin D3; more than 6.70 at CDK4/Cyclin D1; more than 6.70 in test [1]; 5.70 to 6.30 against CDK1/Cyclin B1; less than 5.70 in the test with OVCAR-3 cells.
On to `CC(=O)N1CCC2(CCN(c3cccc4cnc(Nc5ccc(N6CC7(COC7)C6)cn5)nc34)C2)C1` (stereo not drawn) [Example 41, 1-(7-(2-((5-(2-oxa-6-azaspiro[3.3]heptan-6-yl)pyridin-2-yl)amino)quinazolin-8-yl)-2,7-diazaspiro[4.4]nonan-2-yl)ethan-1-one], for which the pIC50 in the test with MCF-7 cells was less than 5.70; on CDK6/Cyclin D3, 5.70 to 6.30; at CDK4/Cyclin D1, 6.30 to 6.70; in test [1], less than 5.70; against CDK1/Cyclin B1 it was less than 5.70; in the test on OVCAR-3 cells, less than 5.70.
Regarding `CN1CCC2(C1)CN(c1cccc3cnc(NC4CCN(S(C)(=O)=O)CC4)nc13)C2` [Example 40, 8-(6-methyl-2,6-diazaspiro[3.4]octan-2-yl)-N-(1-(methylsulfonyl)piperidin-4-yl)quinazolin-2-amine], the pIC50 in the test on MCF-7 cells is less than 5.70; at CDK6/Cyclin D3 it was 6.30 to 6.70; on CDK4/Cyclin D1, 6.30 to 6.70; in test [1], 6.30 to 6.70; against CDK1/Cyclin B1 it was 5.70 to 6.30; with OVCAR-3 cells it was less than 5.70.
Consider `CS(=O)(=O)N1CCC(Nc2ncc3cccc(N4CC5(CCNC5)C4)c3n2)CC1` [Example 31, N-(1-(methylsulfonyl)piperidin-4-yl)-8-(2,6-diazaspiro[3.4]octan-2-yl)quinazolin-2-amine], for which the pIC50 with MCF-7 cells was 5.70 to 6.30; on CDK6/Cyclin D3, 6.30 to 6.70; on CDK4/Cyclin D1 it was more than 6.70; in test [1] it was more than 6.70; against CDK1/Cyclin B1 it was 6.30 to 6.70; in the test with OVCAR-3 cells, 5.70 to 6.30.
Consider `CS(=O)(=O)N1CCC(Nc2ncc3cccc(C4CCCC4)c3n2)CC1` [Example 1, 8-cyclopentyl-N-(1-(methylsulfonyl)piperidin-4-yl)quinazolin-2-amine], for which the pIC50 is 6.30 to 6.70 in the test with MCF-7 cells; more than 6.70 at CDK6/Cyclin D3; more than 6.70 at CDK4/Cyclin D1; more than 6.70 in test [1]; more than 6.70 on CDK1/Cyclin B1; 5.70 to 6.30 with OVCAR-3 cells.
`CS(=O)(=O)N1CCC(Nc2ncc3cccc(N4CCC4CO)c3n2)CC1` (stereo not drawn) [Example 10, (1-(2-((1-(methylsulfonyl)piperidin-4-yl)amino)quinazolin-8-yl)azetidin-2-yl)methanol]: the pIC50 was less than 5.70 in the test with MCF-7 cells; more than 6.70 on CDK6/Cyclin D3; more than 6.70 at CDK4/Cyclin D1; more than 6.70 in test [1]; 6.30 to 6.70 against CDK1/Cyclin B1; less than 5.70 in the test on OVCAR-3 cells.
Turning to `COCCN1CC2(CCN(c3cccc4cnc(Nc5ccc(N6CC7(COC7)C6)cn5)nc34)C2)C1` [Example 43, N-(5-(2-oxa-6-azaspiro[3.3]heptan-6-yl)pyridin-2-yl)-8-(2-(2-methoxyethyl)-2,6-diazaspiro[3.4]octan-6-yl)quinazolin-2-amine], the pIC50 in the test on MCF-7 cells is 5.70 to 6.30; at CDK6/Cyclin D3, 5.70 to 6.30; at CDK4/Cyclin D1, 6.30 to 6.70; in test [1], less than 5.70; against CDK1/Cyclin B1, less than 5.70; in the test with OVCAR-3 cells, less than 5.70.
Consider `CS(=O)(=O)N1CCC(Nc2ncc3cccc(N4CC(CC#N)C4)c3n2)CC1` [Example 14, 2-(1-(2-((1-(methylsulfonyl)piperidin-4-yl)amino)quinazolin-8-yl)azetidin-3-yl)acetonitrile], for which the pIC50 in the test with MCF-7 cells is less than 5.70; at CDK6/Cyclin D3, more than 6.70; at CDK4/Cyclin D1 it was more than 6.70; in test [1], more than 6.70; against CDK1/Cyclin B1, 6.30 to 6.70; in the test on OVCAR-3 cells it was less than 5.70.
On to `CC(=O)N1CCC2(CCN(c3cc(C(F)F)cc4cnc(Nc5ccc(N6CCN(C)CC6)cc5)nc34)C2)C1` (stereo not drawn) [Example 51, 1-(7-(6-(difluoromethyl)-2-((4-(4-methylpiperazin-1-yl)phenyl)amino)quinazolin-8-yl)-2,7-diazaspiro[4.4]nonan-2-yl)ethan-1-one], for which the pIC50 in the test on MCF-7 cells was 5.70 to 6.30; on CDK6/Cyclin D3, more than 6.70; on CDK4/Cyclin D1, more than 6.70; in test [1] it was 5.70 to 6.30; against CDK1/Cyclin B1, less than 5.70; in the test with OVCAR-3 cells, 5.70 to 6.30.
On to `COCCN1CC2(C1)CN(c1cccc3cnc(NC4CCN(S(C)(=O)=O)CC4)nc13)C2` [Example 36, 8-(6-(2-methoxyethyl)-2,6-diazaspiro[3.3]heptan-2-yl)-N-(1-(methylsulfonyl)piperidin-4-yl)quinazolin-2-amine], for which the pIC50 in the test with MCF-7 cells was less than 5.70; at CDK6/Cyclin D3, 5.70 to 6.30; on CDK4/Cyclin D1, more than 6.70; in test [1], more than 6.70; against CDK1/Cyclin B1, 5.70 to 6.30; in the test with OVCAR-3 cells, less than 5.70.
`CC(=O)N1CCC2(CCN(c3cccc4cnc(Nc5ccc(N6CC7(C6)CC(F)(F)C7)cn5)nc34)C2)C1` (stereo not drawn) [Example 47, 1-(7-(2-((5-(6,6-difluoro-2-azaspiro[3.3]heptan-2-yl)pyridin-2-yl)amino)quinazolin-8-yl)-2,7-diazaspiro[4.4]nonan-2-yl)ethan-1-one]: the pIC50 with MCF-7 cells is less than 5.70; at CDK6/Cyclin D3, 6.30 to 6.70; on CDK4/Cyclin D1 it was 6.30 to 6.70; in test [1], less than 5.70; at CDK1/Cyclin B1, less than 5.70; in the test on OVCAR-3 cells, less than 5.70.
With `CCN1CC2(C1)CN(c1ccc(Nc3ncc4cccc(N5CCC6(CCN(C(C)=O)C6)C5)c4n3)nc1)C2` (stereo not drawn) [Example 46, 1-(7-(2-((5-(6-ethyl-2,6-diazaspiro[3.3]heptan-2-yl)pyridin-2-yl)amino)quinazolin-8-yl)-2,7-diazaspiro[4.4]nonan-2-yl)ethan-1-one], the pIC50 in the test on MCF-7 cells was 5.70 to 6.30; on CDK6/Cyclin D3, 6.30 to 6.70; on CDK4/Cyclin D1, more than 6.70; in test [1] it was less than 5.70; at CDK1/Cyclin B1, less than 5.70; in the test with OVCAR-3 cells, less than 5.70.

Values taken from patent US20240092761A1, “QUINAZOLINE COMPOUNDS AND METHODS OF USE” (IAMBIC THERAPEUTICS, INC., priority 2022, published 2024).
